Experimental findings from patent US10000498B2, “Selective proton coupled folate transporter and folate receptor, and GARFTase inhibitor compounds and methods of using the same” (Duquesne University of the Holy Spirit, priority 2008, dated 2018) are described below.

Structures are written as SMILES. Like-named read-outs stand apart in the source and are kept apart here.

One test addresses T1, hRFC (Homo sapiens, UniProt P41440).
T1 construct: expressed in transfected cells; host or cells: PC43-10 (CHO subline derived from RFC- and FR-null R2 cells)
T1 sequence (P41440 1-591): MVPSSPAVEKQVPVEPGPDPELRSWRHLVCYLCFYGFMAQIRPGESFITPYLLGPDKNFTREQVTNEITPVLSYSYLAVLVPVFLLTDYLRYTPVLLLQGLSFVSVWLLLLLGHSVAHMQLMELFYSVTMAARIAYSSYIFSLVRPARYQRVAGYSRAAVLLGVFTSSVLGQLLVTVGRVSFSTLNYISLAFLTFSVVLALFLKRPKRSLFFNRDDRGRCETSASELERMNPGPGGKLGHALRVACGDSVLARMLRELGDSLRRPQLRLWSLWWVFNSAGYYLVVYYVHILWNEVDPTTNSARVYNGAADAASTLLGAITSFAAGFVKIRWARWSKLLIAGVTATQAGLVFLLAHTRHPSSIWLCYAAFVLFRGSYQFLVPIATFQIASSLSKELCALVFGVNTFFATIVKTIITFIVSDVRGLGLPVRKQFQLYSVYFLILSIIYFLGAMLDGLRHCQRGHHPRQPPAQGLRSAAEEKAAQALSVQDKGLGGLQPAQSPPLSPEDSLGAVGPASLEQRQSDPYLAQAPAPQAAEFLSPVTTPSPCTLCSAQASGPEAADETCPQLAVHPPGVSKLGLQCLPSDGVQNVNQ
In words: Inhibition of [3H]MTX uptake by RFC in PC43 cells. In kind it is cell-based. The following applies: pH 7.2-7.4; not shown.

The target in the next test is T2, hPCFT (Homo sapiens, UniProt Q96NT5).
T2 construct: expressed in transfected cells
T2 sequence (Q96NT5 1-459): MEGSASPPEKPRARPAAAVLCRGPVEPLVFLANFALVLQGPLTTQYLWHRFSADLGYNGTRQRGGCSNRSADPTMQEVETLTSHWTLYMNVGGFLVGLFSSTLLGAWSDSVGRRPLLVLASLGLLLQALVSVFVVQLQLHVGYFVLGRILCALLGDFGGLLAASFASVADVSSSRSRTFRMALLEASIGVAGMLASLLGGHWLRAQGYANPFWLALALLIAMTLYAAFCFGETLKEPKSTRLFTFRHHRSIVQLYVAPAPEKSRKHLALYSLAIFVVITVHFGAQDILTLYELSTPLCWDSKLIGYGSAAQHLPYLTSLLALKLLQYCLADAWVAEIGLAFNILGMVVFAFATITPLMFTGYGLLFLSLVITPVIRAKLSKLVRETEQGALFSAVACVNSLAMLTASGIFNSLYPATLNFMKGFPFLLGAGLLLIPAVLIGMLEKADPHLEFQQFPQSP
Put plainly: Inhibition of [3H]MTX transport by hPCFT. In kind it is cell-based. As to conditions: initial studies over a range of pH values.

Test [1] deals with RT16 cells (hFRα-expressing Chinese hamster ovary). In words: Growth inhibition of FR-expressing RT16 CHO cells, with or without folic acid. The format is cell-based. The following applies: for IC50: Cricetulus griseus.
Another test deals with FRα (Homo sapiens, UniProt P15328). In words: FRα binding affinity relative to folic acid. The following applies: folic acid set to 1.
Another test concerns KB cells. Put plainly: Nucleoside/AICA protection from growth inhibition in KB cells. The format is cell-based, human.

Sequence of FRα (P15328 25-234): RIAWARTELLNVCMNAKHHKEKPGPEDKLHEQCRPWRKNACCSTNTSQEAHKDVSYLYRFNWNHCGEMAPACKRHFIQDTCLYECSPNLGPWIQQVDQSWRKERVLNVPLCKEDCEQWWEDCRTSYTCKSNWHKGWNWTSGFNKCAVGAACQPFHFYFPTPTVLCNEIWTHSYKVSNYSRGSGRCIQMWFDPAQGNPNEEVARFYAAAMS

For `Nc1nc2[nH]c(CCCCc3ccc(C(=O)N[C@@H](CCC(=O)O)C(=O)O)s3)cc2c(=O)[nH]1` [AAG154353, (S)-2-({5-[4-(2-amino-4-oxo-4,7-dihydro-3H-pyrrolo[2,3-d]pyrimidin-6-yl)-butyl]thiophene-2-carbonyl}-amino)-pentanedioic acid], the “Inhibition of [3H]MTX transport from hRFC in pC43-10 cells (in words)” value on hRFC is recorded as “negligible inhibition”. Besides, the “Increased inhibition of hPCFT transport at acid (pH<7) over neutral (pH>7) conditions” value on hPCFT is reported as 2-3 fold. The “Growth inhibition / FR-targeted activity toward RT16 cells (in words)” value in test [1] is reported as “high level of FR-targeted activity”. Further, the IC50 is 2 nM in test [1] (RT16, read-out: Growth inhibition (IC50, nM) hFRα RT16) and > 1000 nM in test [1] (RT16, read-out: Growth inhibition (IC50, nM) hFRα RT16 (+FA)). Further, the “FRα binding affinity compared to folic acid” value on FRα was “very high binding affinities”. The “Effect of 5-amino-4-imidazolecarboxamide (AICA) on growth inhibition of KB cells” value in the test on KB cells (AICA 320 μM) is reported as “completely protected”. In the test on KB cells (adenosine 60 μM), the “Effect of adenosine on growth inhibition of KB cells” value is recorded as “completely protective”. In addition, the “Effect of thymidine on growth inhibition of KB cells” value in the test with KB cells (thymidine 10 μM) is given as “did not alter the growth inhibitory effects”.

As a reminder, the IC50 is the concentration at which inhibition is half-maximal.
